Results: ChEMBL document CHEMBL4177647, “Conformational properties of ascydiacyclamide analogues with cyclic α-amino acids instead of oxazoline residues” (2017)
In brackets after ≈: the same amount, converted by molar mass.

Tests used:
Assay type in all cases: functional
P388 [1] = test: Cytotoxicity against mouse P388 cells after 72 hrs by MTT assay; conditions: P388, 72 h, read-out: ED50 (the source's name)
HL-60 [2] = test: Cytotoxicity against human HL60 cells after 72 hrs by MTT assay; conditions: HL-60, 72 h, read-out: ED50 (the source's name)
P388 [3] = test: Cytotoxicity against mouse P388 cells after 72 hrs by MTT assay relative to Ascidiacyclamide
HL-60 [4] = test: Potency index, ratio of ED50 for Ascidiacyclamide to ED50 test compound against human HL60 cells after 72 hrs by MTT assay

CC[C@H](C)[C@@H]1NC(=O)c2csc(n2)[C@@H](C(C)C)NC(=O)[C@@H]2CCN2C(=O)[C@H]([C@@H](C)CC)NC(=O)c2csc(n2)[C@@H](C(C)C)NC(=O)[C@@H]2CCN2C1=O showed an EC50 (P388 [1]) greater than 100 µg/mL and an EC50 (HL-60 [2]) greater than 100 µg/mL.

With CC[C@H](C)[C@@H]1NC(=O)c2csc(n2)[C@@H](C(C)C)NC(=O)[C@@H]2C=CCN2C(=O)[C@H]([C@@H](C)CC)NC(=O)c2csc(n2)[C@@H](C(C)C)NC(=O)[C@@H]2C=CCN2C1=O the EC50 (P388 [1]) was greater than 100 µg/mL and the EC50 (HL-60 [2]) was greater than 100 µg/mL.

CC[C@H](C)[C@@H]1NC(=O)c2csc(n2)[C@@H](C(C)C)NC(=O)[C@H]2N=C(O[C@@H]2C)[C@H]([C@@H](C)CC)NC(=O)c2csc(n2)[C@@H](C(C)C)NC(=O)[C@H]2N=C1O[C@@H]2C [ASCIDIACYCLAMIDE] gave an EC50 (P388 [1]) of 10.5 µg/mL (≈ 13.9 µM).

In the case of CC[C@H](C)[C@@H]1NC(=O)c2csc(n2)[C@@H](C(C)C)NC(=O)[C@@H]2CCCCN2C(=O)[C@H]([C@@H](C)CC)NC(=O)c2csc(n2)[C@@H](C(C)C)NC(=O)[C@@H]2CCCCN2C1=O, the EC50 (P388 [1]) is reported as 15.8 µg/mL (≈ 19.4 µM), the EC50 (HL-60 [2]) is reported as 15 µg/mL (≈ 18.4 µM) and the Activity (P388 [3]) is reported as 66%. The “Ratio ED50” value (HL-60 [4]) was 2.

For CC[C@H](C)[C@@H]1NC(=O)c2csc(n2)[C@@H](C(C)C)NC(=O)[C@@H]2CCCN2C(=O)[C@H]([C@@H](C)CC)NC(=O)c2csc(n2)[C@@H](C(C)C)NC(=O)[C@@H]2CCCN2C1=O, the EC50 (P388 [1]) was 19.4 µg/mL (≈ 24.7 µM), the EC50 (HL-60 [2]) was 10.4 µg/mL (≈ 13.2 µM) and the “Ratio ED50” value (HL-60 [4]) was 3.
